From ChEMBL document CHEMBL1201862, “PubChem BioAssay data set” (2004)
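Assay format: 96-well plates, 48-hour exposure. GI50: concentration for 50% inhibition of growth.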 Activity calls are given as the source filed them. No stated cut-off is given here; in the data, active = GI50 up to about 1.1 µM and inactive = higher.

How the values were obtained:
Experiment in all cases: growth of human tumour cells (NCI), 48 h
786-0 = system: 786-0
A549 = system: A549
ACHN = system: ACHN
BT-549 = system: BT-549
CAKI-1 = system: CAKI-1
CCRF-CEM = system: CCRF-CEM
COLO 205 = system: COLO 205
DU-145 = system: DU-145
EKVX = system: EKVX
HCC 2998 = system: HCC 2998
HCT-116 = system: HCT-116
HCT-15 = system: HCT-15
HL-60 = system: HL-60
HOP-62 = system: HOP-62
HT-29 = system: HT-29
IGROV-1 = system: IGROV-1
K562 = system: K562
KM12 = system: KM12
LOX IMVI = system: LOX IMVI
M14 = system: M14
MCF7 = system: MCF7
MDA-MB-231 = system: MDA-MB-231
MDA-MB-435 = system: MDA-MB-435
MDA-N = system: MDA-N
MOLT-4 = system: MOLT-4
Malme-3M = system: Malme-3M
NCI-H226 = system: NCI-H226
NCI/ADR-RES = system: NCI/ADR-RES
OVCAR-3 = system: OVCAR-3
OVCAR-5 = system: OVCAR-5
OVCAR-8 = system: OVCAR-8
PC-3 = system: PC-3
RPMI-8226 = system: RPMI-8226
SF-268 = system: SF-268
SF-295 = system: SF-295
SF-539 = system: SF-539
SK-MEL-28 = system: SK-MEL-28
SK-MEL-5 = system: SK-MEL-5
SK-OV-3 = system: SK-OV-3
SN12C = system: SN12C
SNB-19 = system: SNB-19
SNB-75 = system: SNB-75
SR = system: SR
SW-620 = system: SW-620
T47D = system: T47D
TK-10 = system: TK-10
U-251 = system: U-251
UACC-257 = system: UACC-257
UACC-62 = system: UACC-62
UO-31 = system: UO-31
A498 = system: A498
HOP-92 = system: HOP-92
NCI-H23 = system: NCI-H23
NCI-H460 = system: NCI-H460
NCI-H522 = system: NCI-H522
OVCAR-4 = system: OVCAR-4
RXF 393 = system: RXF 393
SK-MEL-2 = system: SK-MEL-2

## COc1cc2c(cc1OC)C1c3ccccc3CCN1CCC2.[O-][Cl+3]([O-])([O-])O (stereo not drawn)
786-0
  GI50: > 100 µM (inactive)
A549
  GI50: > 100 µM (inactive)
ACHN
  GI50: > 100 µM (inactive)
BT-549
  GI50: 23.6 µM (inactive)
CAKI-1
  GI50: > 100 µM (inactive)
CCRF-CEM
  GI50: > 100 µM (inactive)
COLO 205
  GI50: > 100 µM (inactive)
DU-145
  GI50: > 100 µM (inactive)
EKVX
  GI50: > 100 µM (inactive)
HCC 2998
  GI50: > 100 µM (inactive)
HCT-116
  GI50: 74.3 µM (inactive)
HCT-15
  GI50: > 100 µM
HL-60
  GI50: 68.5 µM (inactive)
HOP-62
  GI50: > 100 µM (inactive)
HT-29
  GI50: 69.7 µM (inactive)
IGROV-1
  GI50: > 100 µM (inactive)
K562
  GI50: 76 µM (inactive)
KM12
  GI50: > 100 µM (inactive)
LOX IMVI
  GI50: > 100 µM (inactive)
M14
  GI50: > 100 µM (inactive)
MCF7
  GI50: > 100 µM (inactive)
MDA-MB-231
  GI50: > 100 µM (inactive)
MDA-MB-435
  GI50: 83.6 µM (inactive)
MDA-N
  GI50: > 100 µM (inactive)
MOLT-4
  GI50: > 100 µM (inactive)
Malme-3M
  GI50: > 100 µM (inactive)
NCI-H226
  GI50: > 100 µM (inactive)
NCI/ADR-RES
  GI50: > 100 µM (inactive)
OVCAR-3
  GI50: > 100 µM (inactive)
OVCAR-5
  GI50: > 100 µM (inactive)
OVCAR-8
  GI50: > 100 µM (inactive)
PC-3
  GI50: > 100 µM (inactive)
RPMI-8226
  GI50: 63.7 µM (inactive)
SF-268
  GI50: > 100 µM (inactive)
SF-295
  GI50: > 100 µM (inactive)
SF-539
  GI50: > 100 µM (inactive)
SK-MEL-28
  GI50: > 100 µM (inactive)
SK-MEL-5
  GI50: > 100 µM (inactive)
SK-OV-3
  GI50: > 100 µM (inactive)
SN12C
  GI50: > 100 µM (inactive)
SNB-19
  GI50: > 100 µM (inactive)
SNB-75
  GI50: > 100 µM (inactive)
SR
  GI50: > 100 µM (inactive)
SW-620
  GI50: > 100 µM (inactive)
T47D
  GI50: > 100 µM (inactive)
TK-10
  GI50: > 100 µM (inactive)
U-251
  GI50: > 100 µM (inactive)
UACC-257
  GI50: > 100 µM (inactive)
UACC-62
  GI50: > 100 µM (inactive)
UO-31
  GI50: 48.4 µM (inactive)

## CSc1nc2c(c(=O)n1C)N=C(c1ccc([N+](=O)[O-])cc1)CC(c1ccccc1)N2 (stereo not drawn)
786-0
  GI50: > 100 µM (inactive)
A498
  GI50: > 100 µM (inactive)
A549
  GI50: > 100 µM (inactive)
ACHN
  GI50: 95.9 µM (inactive)
BT-549
  GI50: > 100 µM (inactive)
CAKI-1
  GI50: > 100 µM (inactive)
CCRF-CEM
  GI50: 72.4 µM (inactive)
COLO 205
  GI50: > 100 µM (inactive)
DU-145
  GI50: > 100 µM (inactive)
EKVX
  GI50: > 100 µM (inactive)
HCC 2998
  GI50: > 100 µM (inactive)
HCT-116
  GI50: > 100 µM (inactive)
HL-60
  GI50: 20.5 µM (inactive)
HOP-62
  GI50: > 100 µM (inactive)
HOP-92
  GI50: > 100 µM (inactive)
HT-29
  GI50: > 100 µM (inactive)
IGROV-1
  GI50: > 100 µM (inactive)
K562
  GI50: > 100 µM (inactive)
KM12
  GI50: 84.3 µM (inactive)
LOX IMVI
  GI50: 78.9 µM (inactive)
M14
  GI50: > 100 µM (inactive)
MCF7
  GI50: 49 µM (inactive)
MDA-MB-231
  GI50: 36.8 µM (inactive)
MDA-MB-435
  GI50: > 100 µM (inactive)
MOLT-4
  GI50: 33 µM (inactive)
Malme-3M
  GI50: > 100 µM (inactive)
NCI-H226
  GI50: > 100 µM (inactive)
NCI-H23
  GI50: 99.8 µM (inactive)
NCI-H460
  GI50: 90.6 µM (inactive)
NCI-H522
  GI50: 48.8 µM (inactive)
NCI/ADR-RES
  GI50: > 100 µM (inactive)
OVCAR-3
  GI50: > 100 µM (inactive)
OVCAR-4
  GI50: 91.8 µM (inactive)
OVCAR-5
  GI50: > 100 µM (inactive)
OVCAR-8
  GI50: > 100 µM (inactive)
PC-3
  GI50: > 100 µM (inactive)
RPMI-8226
  GI50: > 100 µM (inactive)
RXF 393
  GI50: > 100 µM (inactive)
SF-295
  GI50: > 100 µM (inactive)
SF-539
  GI50: > 100 µM (inactive)
SK-MEL-28
  GI50: > 100 µM (inactive)
SK-MEL-2
  GI50: > 100 µM (inactive)
SK-MEL-5
  GI50: > 100 µM (inactive)
SK-OV-3
  GI50: > 100 µM (inactive)
SN12C
  GI50: > 100 µM (inactive)
SNB-19
  GI50: > 100 µM (inactive)
SNB-75
  GI50: 41.2 µM (inactive)
SR
  GI50: > 100 µM (inactive)
SW-620
  GI50: > 100 µM (inactive)
U-251
  GI50: > 100 µM (inactive)
UACC-257
  GI50: > 100 µM (inactive)
UACC-62
  GI50: > 100 µM (inactive)
UO-31
  GI50: > 100 µM (inactive)
